pEC50: −log10 of the molar value.
Tested on: Aβ42
Assay: In vitro cell screening assay in H4 cells expressing human APP751: Aβ42 by sandwich ELISA
Type: cell-based
Conditions: compounds 0.003-10 μM, incubated overnight (16-18 h), sandwich ELISA of supernatant
Summary of the method: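 Secreted Aβ42 measured by sandwich ELISA, C-terminal-specific capture and 4G8-HRP detection, TMB read at 450 nm, from supernatants of APP751-expressing H4 cells exposed overnight (16-18 h) to 0.003-10 μM compound in Pro293 medium, 0.33% DMSO. Data scaled between DMSO and DAPT controls; EC50 from variable-slope nonlinear regression.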

SMILES | pEC50 | pEC50 (Homo sapiens)
COc1nc(C2=NOCC(c3ccc(Cl)cc3C)N2C)ccc1-n1cnc(C)c1 (single isomer, unassigned) [Example 27B, 5-(4-chloro-2-methylphenyl)-3-(6-methoxy-5-(4-methyl-1H-imidazol-1-yl)pyridin-2-yl)-4-methyl-5,6-dihydro-4H-1,2,4-oxadiazine] | 7.21 | 
COc1nc(C2=NOC[C@H](c3cc4ccccc4o3)N2)ccc1-n1cnc(C)c1 [Example 4, (R)-5-(Benzofuran-2-yl)-3-(6-methoxy-5-(4-methyl-1H-imidazol-1-yl)pyridin-2-yl)-5,6-dihydro-4H-1,2,4-oxadiazine] |  | 7.42
COc1ccc(C2CON=C(c3ccc(-n4cnc(C)c4)c(OC)n3)N2)cc1 (single isomer, unassigned; (+)) [Example 54B, (+)-3-(6-methoxy-5-(4-methyl-1H-imidazol-1-yl)pyridin-2-yl)-5-(4-methoxyphenyl)-5,6-dihydro-4H-1,2,4-oxadiazine] | 7.01 | 
COc1nc(C2=NOCC(c3ccc(F)cc3)N2)ccc1-n1cnc(C)c1 (single isomer, unassigned) [Example 40B, 5-(4-fluorophenyl)-3-(6-methoxy-5-(4-methyl-1H-imidazol-1-yl)pyridin-2-yl)-5,6-dihydro-4H-1,2,4-oxadiazine] | 7.23 | 
COc1nc(C2=NOCC(c3c[nH]c4ccccc34)N2)ccc1-n1cnc(C)c1 (single isomer, unassigned) [Example 47B, 5-(1H-indol-3-yl)-3-(6-methoxy-5-(4-methyl-1H-imidazol-1-yl)pyridin-2-yl)-5,6-dihydro-4H-1,2,4-oxadiazine] | 7.64 | 
COc1nc(C2=NOCC(c3cc4cccc(C)c4o3)N2)ccc1-n1cnc(C)c1 (single isomer, unassigned) [Example 7B, 3-(6-Methoxy-5-(4-methyl-1H-imidazol-1-yl)pyridin-2-yl)-5-(7-methylbenzofuran-2-yl)-5,6-dihydro-4H-1,2,4-oxadiazine] | 7.63 | 
COc1nc(C2=NOCC(C(C)(C)C)N2)ccc1-n1cnc(C)c1 (single isomer, unassigned; (-)) [Example 147A, (−)-5-(tert-butyl)-3-(6-methoxy-5-(4-methyl-1H-imidazol-1-yl)pyridin-2-yl)-5,6-dihydro-4H-1,2,4-oxadiazine] | 6.88 | 
COc1nc(C2=NOCC(c3cc(F)cc(Cl)c3)N2)ccc1-n1cnc(C)c1 (single isomer, unassigned; (-)) [Example 111A, (−)-5-(3-chloro-5-fluorophenyl)-3-(6-methoxy-5-(4-methyl-1H-imidazol-1-yl)pyridin-2-yl)-5,6-dihydro-4H-1,2,4-oxadiazine] | < 5.52 | 
COc1nc(C2=NOCC(c3cc4cccc(Cl)c4o3)N2)ccc1-n1cnc(C)c1 (single isomer, unassigned; (-)) [Example 64A, (−)-5-(7-chlorobenzofuran-2-yl)-3-(6-methoxy-5-(4-methyl-1H-imidazol-1-yl)pyridin-2-yl)-5,6-dihydro-4H-1,2,4-oxadiazine] | 6.12 | 

More lines, now with the values ahead:

pEC50 | pEC50 (Homo sapiens) | SMILES
8.26 |  | COc1nc(C2=NOCC(c3cn(C)c4ccc(F)c(F)c34)N2)ccc1-n1cnc(C)c1 (single isomer, unassigned; (+)) [Example 220B, (+)-5-(4,5-difluoro-1-methyl-1H-indol-3-yl)-3-(6-methoxy-5-(4-methyl-1H-imidazol-1-yl)pyridin-2-yl)-5,6-dihydro-4H-1,2,4-oxadiazine]
8.00 |  | COc1nc(C2=NOCC(c3ccc4c(c3)CCC4)N2)ccc1-n1cnc(C)c1 (single isomer, unassigned; (+)) [Example 248B, (+)-5-(2,3-dihydro-1H-inden-5-yl)-3-(6-methoxy-5-(4-methyl-1H-imidazol-1-yl)pyridin-2-yl)-5,6-dihydro-4H-1,2,4-oxadiazine]
6.12 |  | COc1nc(C2=NOCC(c3ccc(C(C)(C)C)cc3)N2)ccc1-n1cnc(C)c1 (single isomer, unassigned; (-)) [Example 235A, (−)-5-(4-(tert-butyl)phenyl)-3-(6-methoxy-5-(4-methyl-1H-imidazol-1-yl)pyridin-2-yl)-5,6-dihydro-4H-1,2,4-oxadiazine]
7.04 |  | COc1nc(C2=NOCC(c3cn(C)c4cc(C(F)(F)F)ccc34)N2)ccc1-n1cnc(C)c1 (single isomer, unassigned; (-)) [Example 197B, (−)-3-(6-methoxy-5-(4-methyl-1H-imidazol-1-yl)pyridin-2-yl)-5-(1-methyl-6-(trifluoromethyl)-1H-indol-3-yl)-5,6-dihydro-4H-1,2,4-oxadiazine]
6.60 |  | COc1nc(C2=NOCC(c3cn(C)c4ccccc34)N2)ccc1-n1cnc(C)c1 (single isomer, unassigned; (-)) [Example 189B, (−)-3-(6-methoxy-5-(4-methyl-1H-imidazol-1-yl)pyridin-2-yl)-5-(1-methyl-1H-indol-3-yl)-5,6-dihydro-4H-1,2,4-oxadiazine]
6.32 |  | COc1nc(C2=NOCC(c3ccc4c(c3)CCC4)N2)ccc1-n1cnc(C)c1 (single isomer, unassigned; (-)) [Example 248A, (−)-5-(2,3-dihydro-1H-inden-5-yl)-3-(6-methoxy-5-(4-methyl-1H-imidazol-1-yl)pyridin-2-yl)-5,6-dihydro-4H-1,2,4-oxadiazine]
